A short description of series [1]: Liver microsomal stability, rat. The format is in vitro ADME. As to conditions: pooled liver microsomes, pH 7.4, 3 μM compound, 0.5 mg/mL protein, read-out: Liver Microsomal Stability t1/2. The protocol:
(§1) Microsomal incubation: Experimental Procedure Pooled liver microsomes are purchased from a reputable commercial supplier and stored at −80° C. prior to use. Microsomes (final protein concentration 0.5 mg/mL), 0.1 M phosphate buffer pH 7.4 and test compound (final substrate concentration 3 μM, final DMSO concentration 0.25%) are pre-incubated at 37° C. prior to the addition of NADPH (final concentration 1 mM) to initiate the reaction. The final incubation volume is […]. A control incubation is included for each compound tested where 0.1 M phosphate buffer pH 7.4 is added instead of NADPH (minus NADPH). Two control compounds are included with each species. All incubations are performed singularly for each test compound. Each compound is incubated for 0, 5, 15, 30 and 45 min. The control (minus NADPH) is incubated for 45 min only. The reactions are stopped by transferring 20 μL of incubate to 60 μL MeOH at the appropriate time points. The termination plates are centrifuged at 2,500 rpm for 20 min at 4° C. to precipitate the protein. Following protein precipitation, the sample supernatants are combined in cassettes of up to 4 compounds, internal standard is added and samples analysed by LC-MS/MS. From a plot of In peak area ratio (compound peak area/internal standard peak area) against time, the gradient of the line is determined. Subsequently, half-life and intrinsic clearance are calculated.
A general note: Liver microsomes are a subcellular fraction often used to study metabolism.

The subject of the next series is MDR1. The series is described as follows: in vitro. As to conditions: dog, MDCK-MDR1. The series is classed as in vitro ADME. As to the method: MDR1-MDCK Permeability: Experimental Procedure
MDR1-MDCK cells obtained from the NIH (Rockville, Md., USA) are used between passage numbers 6-30. Cells are seeded onto Millipore Multiscreen Transwell plates at 3.4×10^5 cells/cm^2. The cells are cultured in DMEM and media is changed on day 3. On day 4 the permeability study is performed. Cell culture and assay incubations are carried out at 37° C. in an atmosphere of 5% CO2 with a relative humidity of 95%. On the day of the assay, the monolayers are prepared by rinsing both basolateral and apical surfaces twice with Hanks Balanced Salt Solution (HBSS) at the desired pH warmed to 37° C. Cells are then incubated with HBSS at the desired pH in both apical and basolateral compartments for 40 min to stabilise physiological parameters.
The dosing solutions are prepared by diluting test compound with assay buffer to give a final test compound concentration of 10 μM (final DMSO concentration of 1% v/v). The fluorescent integrity marker lucifer yellow is also included in the dosing solution. Analytical standards are prepared from test compound DMSO dilutions and transferred to buffer, maintaining a 1% v DMSO concentration.
For assessment of A-B permeability, HBSS is removed from the apical compartment and replaced with test compound dosing solution. The apical compartment insert is then placed into a companion plate containing fresh buffer (containing 1% v/v DMSO). For assessment of B-A permeability, FIBSS is removed from the companion plate and replaced with test compound dosing solution. Fresh buffer (containing 1% v/v DMSO) is added to the apical compartment insert, which is then placed into the companion plate. At 60 min the apical compartment inserts and the companion plates are separated and apical and basolateral samples diluted for analysis. Test compound permeability is assessed in duplicate. Compounds of known permeability characteristics are run as controls on each assay plate.
Test and control compounds are quantified by LC-MS/MS cassette analysis using an 8-point calibration with appropriate dilution of the samples. The starting concentration (C0) is determined from the dosing solution and the experimental recovery calculated from C0 and both apical and basolateral compartment concentrations. The integrity of the monolayer throughout the experiment is checked by monitoring lucifer yellow permeation using fluorimetric analysis. Lucifer yellow permeation is high if monolayers have been damaged.

Series [2] can be described thus: Liver microsomal stability, human. The format is in vitro ADME. As to conditions: pooled liver microsomes, pH 7.4, 3 μM compound, 0.5 mg/mL protein, read-out: Liver Microsomal Stability t1/2. As to the method:
as §1

A short description of series [3]: Liver microsomal stability, dog. The note with it: pooled liver microsomes, pH 7.4, 3 μM compound, 0.5 mg/mL protein, read-out: Liver Microsomal Stability t1/2. The series is classed as in vitro ADME. The protocol:
as §1

The subject of series [4] is RSV fusion (HEK293T cells transfected with pCDNA3.1_A2_F). The series is described as follows: RSV fusion assay. The format is cell-based. The note with it: human respiratory syncytial virus, HEK-293T, read-out: RSV Fusion Assay (n ≥ 2) IC50. The protocol:
HEK293T ((ECACC 12022001) cells were cultured in T75 culture flasks in Dulbecco's medium (DMEM) containing 10% Foetal Bovine serum (FBS), 50 units per mL Penicillin and 50 μg/mL Streptomycin and warmed to 37° C. prior to use. The cells were passaged by first washing briefly with 5 mL Phosphate buffered saline (PBS), followed by addition of 2 mL of Trypsin Ethylenediaminetetraacetic acid (EDTA) to detach the cells. Once cells had detached from the flask, 8 mL media was then added to and the cells dispersed via pipetting against the bottom of the flask.
The cells were counted and diluted to 3×10^5 cells/mL in fresh media. Two T75 flasks were each seeded with 15.6 mL diluted cells, cells were also subcultured at a ratio of between 1:2 and 1:10, to continue the stock. The flasks were then incubated for 24 h at 37° C. and 5% CO2.
The plasmid DNA (for pFR-Luc and pcDNA3.1_Gal4/NFKB) to be transfected into the HEK 293T cells was first prepared in serum free media (Opti-MEM, Invitrogen), containing the transfection reagent FuGENE® 6 (Promega). Serum free media was placed in a 1.5 mL eppendorf tube then the FuGENE 6 was added into the media. The tube was vortexed for 1 s before being incubated at RT for 5 min. 7.79 ng of both pFR_luc and pCDNA3.1_A2_F plasmid DNA were added to tube 1 and 7.79 ng of pCDNA3.1_GAL4-NF-κB plasmid to tube 2. The tubes were vortexed for 1 second and then incubated at room temperature for 15 min. Each transfection mixture was then added into the media of one of the T75 flasks of 293T cells. Cells were cultured for 24 h at 37° C., 5% CO2 in a humidified incubator.
Compounds were diluted (in a polypropylene round-bottomed 96 well plate) 1:3 in a twelve point dilution curve to give top [final] of either 25 μM, 3 μM, 1 μM or 500 nM. A control compound was included in every assay at a top concentration of 3 μM. Transfected cells were counted and diluted to 4×10^5 cells/mL in fresh media. 50 μL of transfection population 1 were added to all wells of the 96 well flat bottom white opaque assay plates. 100 μL diluted compound (2 rows per compound), control compound (one row) and controls (DMSO (0% inhibition, four wells), 3 μM positive control (100% inhibition, four wells) and media (transfection population 1 only, four wells) were added to the appropriate wells. 50 μL of the diluted (4×10^5 cells/mL) population 2 cells when then added to all wells, except the four wells of transfection population 1 only where an extra 50 μL of this cells population was added.
The plates were then incubated for 24 h at 37° C. and 5% CO2. After this time, 100 μL was removed from all wells and 60 μL of ONE-Glo™ (Promega) reagent, pre-equilibrated to room temperature, was added. Plates were then incubated for 3 min at room temperature before luminescence was read, using the ONE-Glo protocol, on the GloMax Explorer System (Promega) multimode reader. Analysis was carried out in Dotmatics software. All raw data were background subtracted (subtraction of mean 3 μM positive control value), before IC50 calculation.

For orientation: Papp A→B means how fast a substance crosses the layer from the apical side. In general, Papp B→A refers to the apparent permeability from the basolateral to the apical side of a cell layer. One may read the IC50 as the concentration needed to halve the response being measured. As to `CCS(=O)(=O)N1CCC(n2c(CN3C(=O)C(F)(F)c4ccccc43)nc3cc(Cl)ccc32)CC1` [Compound 9, 1-({5-Chloro-1-[1-(ethanesulfonyl)piperidin-4-yl]-1H-1,3-benzodiazol-2-yl}methyl)-3,3-difluoro-2,3-dihydro-1H-indol-2-one], the half-life at 3 μM in series [1] was 0.377 h; in series [2], 1.5 h; in series [3] it was 1.97 h. In addition, the Papp A→B at 60 min, 10 μM in the series on MDR1 stood at 10.4 ×10⁻⁶ cm/s. The compound further gave a Papp B→A at 60 min, 10 μM in the series on MDR1 of 18.3 ×10⁻⁶ cm/s. Further, the half-maximal inhibitory concentration (IC50) in series [4] amounted to 2.2 nM.
On to `CC(C)CCn1c(CN2C(=O)C(F)(F)c3ccccc32)nc2cc(CN)ccc21` [Compound 13, 1-{[5-(Aminomethyl)-1-(3-methylbutyl)-1H-1,3-benzodiazol-2-yl]methyl}-3,3-difluoro-2,3-dihydro-1H-indol-2-one], for which the half-life at 3 μM stood at 0.282 h in series [1], 6.1 h in series [2] and 154 h in series [3]. The same compound gave a Papp A→B at 60 min, 10 μM in the series on MDR1 of 0.84 ×10⁻⁶ cm/s. Also, in the series on MDR1, the Papp B→A at 60 min, 10 μM worked out at 57.1 ×10⁻⁶ cm/s. The IC50 in series [4] was determined as 2.6 nM.
On to `CS(=O)(=O)CCCn1c(CN2C(=O)C(F)(F)c3ccccc32)nc2cc(Cl)ccc21` [Compound 5, 1-{[5-Chloro-1-(3-methanesulfonylpropyl)-1H-1,3-benzodiazol-2-yl]methyl}-3,3-difluoro-2,3-dihydro-1H-indol-2-one], for which the half-life at 3 μM was 0.355 h in series [1], 54.7 h in series [2] and 1.05 h in series [3]. The apical-to-basolateral permeability (Papp A→B) at 60 min, 10 μM with MDR1 amounted to 0.21 ×10⁻⁶ cm/s. This compound also showed a Papp B→A at 60 min, 10 μM in the series on MDR1 of 14.5 ×10⁻⁶ cm/s. Also, the IC50 in series [4] turned out to be 3.9 nM.
`O=C1N(Cc2nc3cc(Cl)ccc3n2C2CCOCC2)c2ccccc2C1(F)F` [Compound 10, 1-{[5-Chloro-1-(oxan-4-yl)-1H-1,3-benzodiazol-2-yl]methyl}-3,3-difluoro-2,3-dihydro-1H-indol-2-one]: the results for the half-life at 3 μM in series [1], in series [2] and in series [3] were 0.303 h, 1.12 h and 0.207 h, respectively. This compound also showed a Papp A→B at 60 min, 10 μM in the series on MDR1 of 19.8 ×10⁻⁶ cm/s. Besides, the Papp B→A at 60 min, 10 μM in the series on MDR1 came to 34.4 ×10⁻⁶ cm/s. Besides, the concentration for half-maximal inhibition (IC50) in series [4] is 17 nM.

(Values after patent US11141406B2, “Pharmaceutical compounds” (REVIRAL LIMITED, priority 2017, dated 2021).)
